Source: publication PMC11939078, “TAK-994 mechanistic investigation into drug-induced liver injury” (Toxicological Sciences, 2025)
Like-named read-outs stand apart in the source and are kept apart here.

Key:
[1] = biological target: human BSEP (Homo sapiens, UniProt O95342); assay: BSEP inhibition, [3H]TCA uptake into membrane vesicles; type: biochemical; details: [3H]TCA transport
Procedure: Covalent binding of TAK-994 was assessed by incubating [^14C]TAK-994 with human hepatocytes. The CVB level was determined by relating the total amount of radioactivity (pmol equivalent) to the protein concentration in each sample. Assessment of TAK-994 inhibition potential for the bile salt efflux pump (BSEP) was assessed by incubating [^3H(G)]taurocholic acid with TAK-994 (0 to 100 μM/l) or cyclosporin A after addition of 10 μl of membrane vesicles expressing BSEP or control membrane vesicles. Scintillation counts were assessed in two 5-min cycles.
Membrane vesicles prepared from baculovirus-infected insect cells, expressing human BSEP or controls (Lot Nos. ISAOG29 and IKING23, respectively), were purchased from GenoMembrane Co., Ltd.
The [^3H]TCA reaction mixture (n=42) containing TAK-994 (including 0–100 μM/L TAK-994) or cyclosporin A was pre-incubated at 37°C for 5 minutes. The transport reaction was initiated by addition of 10 μL of membrane vesicles expressing BSEP or control membrane vesicles (0.05 mg protein) to the [^3H]TCA reaction mixture (final [^3H]TCA concentration of 2 μM/L). […] The glass fiber filter was measured for radioactivity using an LSC. […]
The count rates in cpm were corrected to dpm, with the background and counting efficiency assessed using the external standard method described by the manufacturer. […]

[2] = tested on: participants; assay: Phase I first-in-human study TAK-994-1001, safety; type: in vivo
From the text: TAK-994 was considered to be well tolerated in phase I studies. […] Of 121 participants, 1 subject discontinued due to elevated alanine aminotransferase (ALT) with no other liver enzyme elevations. This event was considered mild in intensity and the participant recovered within 2 wk. No other clinically significant liver enzyme elevations were reported in phase I studies.

[3] = tested on: human liver microtissues; assay: LPS-sensitization assay in liver microtissues; type: cell-based; details: for IC50: cellular ATP on Day 14
Procedure: Six replicates were tested for each condition. […] Cellular ATP content was measured in the cell lysate on Day 14 of treatment. LDH release was measured on Days 5, 9, and 14 in the cell supernatant and normalized to lysed controls.
(§1) Intracellular ATP content in model lysates was measured with the CellTiter-Glo® 2.0 Cell Viability Assay (Catalogue No. G9243, Promega). The Bioluminescent LDH Release Toxicity Assay Kit (Catalogue No. J2380, Promega) was used to assess extracellular LDH release and normalized to lysed controls. ATP, LDH, GSH, and triglycerides were measured according to internal technical operating procedures.

[4] = tested on: nonTg-rasH2 mice; assay: NonTg rasH2 mice 4-week oral gavage toxicity study; type: in vivo, mouse; details: for Histopathological Liver Findings / ALT / AST / GLDH: NonTg rasH2 mice 4-week; for ALT / AST / GLDH: mean (SD)
Procedure: Although phase I human clinical trials were ongoing, additional GLP-compliant repeat-dose oral toxicity studies were conducted in nonTg-rasH2 mice, to enable carcinogenicity studies. […] The liver toxicity presented at high doses ≥300 mg/kg/day as single-cell necrosis of periportal hepatocytes associated with increased aspartate aminotransferase (AST), alkaline phosphatase, ALT, and glutamate dehydrogenase values that increased in a dose-proportional manner alongside cytochrome P450 induction (Table S2).
^cAll dose levels had 10 animals per sex.
*p<0.05 using Shirley-Williams test.

[5] = tested on: HepG2; assay: Mito Stress Test (Seahorse, ECAR and OCR); type: cell-based, human; details: 3, 10, 30, and 100 μM
[6] = tested on: human liver microtissues + FFA; assay: Hepatotoxicity in steatosis liver model (free fatty acids); type: cell-based; details: 14 days
Procedure: Mono and co-culture model cells were exposed to TAK-994 (0.1, 0.3, 1, 3.16, 10, 31.6, or 100 μM in 0.5% DMSO) for 14 days (TAK-994 administered on Days 0, 5, and 9). The cell culture medium was supplemented with free fatty acids of 100 μM of Oleic acid and 66 μM of Palmitic acid. Six replicates were tested for each condition. The vehicle control was 0.5% DMSO, and the positive control was chlorpromazine (0.1, 0.3, 1, 3.16, 10, 31.6, or 100 μM in DMSO). Cellular ATP content was measured in the cell lysate on Day 14 of treatment. LDH release was measured in the cell supernatant on Days 5, 9, and 14 and normalized to lysed controls. Cellular triglyceride content was measured in the microtissues on Day 14.
as §1

[7] = tested on: patients with narcolepsy; details: in vivo

Chain of human BSEP (O95342 whole entry): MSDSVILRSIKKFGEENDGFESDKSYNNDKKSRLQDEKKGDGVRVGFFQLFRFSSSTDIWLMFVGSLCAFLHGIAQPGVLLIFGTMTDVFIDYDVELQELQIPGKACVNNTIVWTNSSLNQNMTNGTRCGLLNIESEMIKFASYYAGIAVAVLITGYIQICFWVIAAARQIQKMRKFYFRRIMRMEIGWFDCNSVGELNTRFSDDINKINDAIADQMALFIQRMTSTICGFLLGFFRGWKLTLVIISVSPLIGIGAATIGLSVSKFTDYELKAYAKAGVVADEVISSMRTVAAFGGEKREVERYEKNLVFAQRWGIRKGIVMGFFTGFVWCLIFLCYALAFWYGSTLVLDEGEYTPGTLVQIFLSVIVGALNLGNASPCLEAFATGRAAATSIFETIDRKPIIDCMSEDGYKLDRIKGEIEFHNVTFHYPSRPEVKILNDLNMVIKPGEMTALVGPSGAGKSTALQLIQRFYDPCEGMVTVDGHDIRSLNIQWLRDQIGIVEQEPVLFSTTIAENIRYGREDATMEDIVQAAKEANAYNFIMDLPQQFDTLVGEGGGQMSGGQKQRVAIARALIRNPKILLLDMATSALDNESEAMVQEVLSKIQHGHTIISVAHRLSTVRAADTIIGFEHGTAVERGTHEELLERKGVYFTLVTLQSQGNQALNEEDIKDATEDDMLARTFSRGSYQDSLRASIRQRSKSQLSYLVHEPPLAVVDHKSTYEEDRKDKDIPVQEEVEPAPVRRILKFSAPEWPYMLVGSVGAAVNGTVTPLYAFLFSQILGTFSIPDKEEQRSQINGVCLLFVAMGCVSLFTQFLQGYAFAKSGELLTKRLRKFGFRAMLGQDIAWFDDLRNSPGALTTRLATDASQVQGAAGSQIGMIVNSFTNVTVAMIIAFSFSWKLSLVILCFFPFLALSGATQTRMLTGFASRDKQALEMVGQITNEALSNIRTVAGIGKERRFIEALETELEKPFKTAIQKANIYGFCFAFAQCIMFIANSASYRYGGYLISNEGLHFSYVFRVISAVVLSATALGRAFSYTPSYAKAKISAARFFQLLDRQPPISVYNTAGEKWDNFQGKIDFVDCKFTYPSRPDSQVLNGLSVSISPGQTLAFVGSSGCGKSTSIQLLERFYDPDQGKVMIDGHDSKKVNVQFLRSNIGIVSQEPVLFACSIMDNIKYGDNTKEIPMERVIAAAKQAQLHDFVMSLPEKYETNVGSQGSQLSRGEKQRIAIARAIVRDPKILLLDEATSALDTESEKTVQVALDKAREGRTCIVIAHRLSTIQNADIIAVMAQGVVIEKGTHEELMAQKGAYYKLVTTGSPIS

## CC(C)(O)C(=O)N1CC[C@H](NS(C)(=O)=O)[C@@H]1Cc1cccc(-c2cc(F)cc(F)c2)c1F.CC(C)(O)C(=O)N1CC[C@H](NS(C)(=O)=O)[C@@H]1Cc1cccc(-c2cc(F)cc(F)c2)c1F.O.O.O [TAK-994]
[1]
  IC50: 34.1 µM
[2]; TAK-994-1001
  deaths or SAEs: no deaths or SAEs were reported
[2]; of 121 participants
  subjects discontinued due to elevated ALT: 1
[3]
  sensitization of liver microtissues by LPS (innate immune activation): no direct innate immune-mediated toxicity was observed
[3]; read-out: IC50, liver microtissues + LPS (Fig. 5A)
  IC50: > 100 µM
[3]; read-out: IC50, liver microtissues without LPS (Fig. 5A)
  IC50: > 100 µM
[4]; female, 300 mg/kg
  Histopathological Liver Findings: Single cell necrosis of hepatocytes
  ALT: 175 (79)* IU/L
  AST: 163 (65)* IU/L
  GLDH: 172 (66)* IU/L
[4]; female, 2000 mg/kg
  Histopathological Liver Findings: Single cell necrosis of hepatocytes
  ALT: 581 (278)* IU/L
  AST: 317 (203)* IU/L
  GLDH: 562 (324)* IU/L
[4]; female, 4000 mg/kg
  Histopathological Liver Findings: Single cell necrosis of hepatocytes
  ALT: 1242 (604)* IU/L
  AST: 473 (216)* IU/L
  GLDH: 1384 (585)* IU/L
[4]; male, 300 mg/kg
  Histopathological Liver Findings: Single cell necrosis of hepatocytes
  ALT: 99 (57)* IU/L
  AST: 79 (34)* IU/L
  GLDH: 104 (68)* IU/L
[4]; male, 2000 mg/kg
  Histopathological Liver Findings: Single cell necrosis of hepatocytes
  ALT: 337 (409)* IU/L
  AST: 211 (299)* IU/L
  GLDH: 331 (356)* IU/L
[4]; male, 4000 mg/kg
  Histopathological Liver Findings: Single cell necrosis of hepatocytes
  ALT: 1164 (330)* IU/L
  AST: 443 (150)* IU/L
  GLDH: 1303 (408)* IU/L
[4]; nonTg-rasH2 mice, repeat-dose oral
  doses at which liver toxicity (single-cell necrosis of periportal hepatocytes, increased AST, ALP, ALT, GLDH) presented: ≥ 300 mg/kg/day
[5]
  changes to mitochondrial respiration (media acidification and oxygen consumption rate): no TAK-994-induced changes to mitochondrial respiration
[6]
  sensitization of liver microtissues by free fatty acids: no increased sensitivity
[7]
  onset of earliest Hy's Law case: 50 days
